On the set-up of data set [1]: method as in PMID 21859884. Particulars: rats; cited from earlier work.
A further data set relates to U87MG xenograft tumors. As to the kind of experiment: U87MG glioblastoma xenograft tumor model. The settings on record: galunisertib 25 mg/kg BID oral; lomustine (CCNU) 30 mg/kg single intraperitoneal dose; alone or combined.

Method for U87MG xenograft tumors: Five million U87MG glioblastoma cells, obtained from ATCC (Manassas, VA), were injected subcutaneously in the flank of 8- to 9-week old, female, athymic nude mice (Harlan, Indianapolis, IN) in a 1:1 mixture of 1x PBS and matrigel (Becton Dickinson, Bedford, MA). Mice were monitored daily for palpable tumors. […] The tumor volumes were recorded at regular intervals following treatment.

With `c1ccc(-c2nc3c(c(-n4ccc5cnccc54)n2)CCC3)nc1` [AZ12601011], the cardiac valve lesions entry in data set [1] is “induced cardiac valve lesions”. Turning to `O=NN(CCCl)C(=O)NC1CCCCC1` [lomustine, reference compound], the “anti-tumor effect (tumor volume)” value with U87MG xenograft tumors was “antitumor activity”.

The values are drawn from PMC5805504 (Oncotarget, 2017).
